Test results taken from ChEMBL document CHEMBL1137760, “Synthesis and activity of tryptophan sulfonamide derivatives as novel non-hydroxamate TNF-alpha converting enzyme (TACE) inhibitors” (Bioorg Med Chem, 2009).

Experiments:
[1] = biological target: Disintegrin and metalloproteinase domain-containing protein 17 (Homo sapiens, UniProt P78536); test: Inhibition of TACE by FRET assay
[2] = biological target: Matrix metalloproteinase-14 (Homo sapiens, UniProt P50281); test: Inhibition of MMP14 by […] assay
Interstitial collagenase = biological target: T1, Interstitial collagenase (Homo sapiens, UniProt P03956); test: Inhibition of MMP1 by FRET assay
T1 sequence (P03956 whole entry): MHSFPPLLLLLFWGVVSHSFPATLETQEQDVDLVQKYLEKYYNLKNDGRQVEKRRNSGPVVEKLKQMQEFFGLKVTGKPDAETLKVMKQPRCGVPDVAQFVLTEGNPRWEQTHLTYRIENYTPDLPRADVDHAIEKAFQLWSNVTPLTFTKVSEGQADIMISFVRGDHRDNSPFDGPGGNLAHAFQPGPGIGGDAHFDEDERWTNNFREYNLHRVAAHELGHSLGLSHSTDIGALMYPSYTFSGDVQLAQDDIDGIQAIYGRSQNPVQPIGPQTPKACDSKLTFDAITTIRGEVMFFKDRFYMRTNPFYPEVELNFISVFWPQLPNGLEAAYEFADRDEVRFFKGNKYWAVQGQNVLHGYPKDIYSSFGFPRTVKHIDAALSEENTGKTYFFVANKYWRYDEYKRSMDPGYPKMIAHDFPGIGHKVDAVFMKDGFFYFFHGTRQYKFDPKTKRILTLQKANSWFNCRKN

[3] = biological target: 72 kDa type IV collagenase (Homo sapiens, UniProt P08253); test: Inhibition of MMP2 by […] assay
[4] = biological target: Disintegrin and metalloproteinase domain-containing protein 17 (Mus musculus, UniProt Q9Z0F8); test: Inhibition of TACE in mouse Raw264.7 cells assessed as inhibition of LPS-induced TNFalpha production treated 1 hr before LPS challenge measured 4 hrs post LPS challenge; format: cell-based
Collagenase 3 = Collagenase 3 (Homo sapiens, UniProt P45452); test: Inhibition of MMP13 by […] assay

Chain of Disintegrin and metalloproteinase domain-containing protein 17 (Homo sapiens, UniProt P78536) (P78536 whole entry, the tested form may be a part): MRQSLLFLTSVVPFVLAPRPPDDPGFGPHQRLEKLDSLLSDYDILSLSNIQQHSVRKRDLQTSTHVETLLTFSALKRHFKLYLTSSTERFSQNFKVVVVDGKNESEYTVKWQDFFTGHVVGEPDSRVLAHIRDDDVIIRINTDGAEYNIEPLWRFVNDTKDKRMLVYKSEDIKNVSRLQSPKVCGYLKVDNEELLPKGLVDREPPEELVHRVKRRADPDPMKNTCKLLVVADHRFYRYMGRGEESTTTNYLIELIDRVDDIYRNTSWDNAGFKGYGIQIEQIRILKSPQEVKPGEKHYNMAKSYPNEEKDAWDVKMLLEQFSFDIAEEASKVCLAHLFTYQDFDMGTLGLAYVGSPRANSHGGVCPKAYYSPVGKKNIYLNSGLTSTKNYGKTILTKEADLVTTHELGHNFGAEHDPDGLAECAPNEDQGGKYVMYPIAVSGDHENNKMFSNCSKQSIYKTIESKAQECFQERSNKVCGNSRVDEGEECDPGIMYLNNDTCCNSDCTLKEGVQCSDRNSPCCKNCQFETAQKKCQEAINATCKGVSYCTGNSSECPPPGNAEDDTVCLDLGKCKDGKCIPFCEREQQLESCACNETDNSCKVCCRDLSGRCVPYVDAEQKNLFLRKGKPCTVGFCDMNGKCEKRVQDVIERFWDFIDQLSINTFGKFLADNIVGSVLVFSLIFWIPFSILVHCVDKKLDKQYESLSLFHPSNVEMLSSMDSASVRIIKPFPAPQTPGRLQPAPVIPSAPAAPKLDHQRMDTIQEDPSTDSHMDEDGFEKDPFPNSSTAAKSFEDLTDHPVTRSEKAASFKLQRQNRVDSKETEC
Chain of Disintegrin and metalloproteinase domain-containing protein 17 (Mus musculus, UniProt Q9Z0F8) (Q9Z0F8 whole entry, the tested form may be a part): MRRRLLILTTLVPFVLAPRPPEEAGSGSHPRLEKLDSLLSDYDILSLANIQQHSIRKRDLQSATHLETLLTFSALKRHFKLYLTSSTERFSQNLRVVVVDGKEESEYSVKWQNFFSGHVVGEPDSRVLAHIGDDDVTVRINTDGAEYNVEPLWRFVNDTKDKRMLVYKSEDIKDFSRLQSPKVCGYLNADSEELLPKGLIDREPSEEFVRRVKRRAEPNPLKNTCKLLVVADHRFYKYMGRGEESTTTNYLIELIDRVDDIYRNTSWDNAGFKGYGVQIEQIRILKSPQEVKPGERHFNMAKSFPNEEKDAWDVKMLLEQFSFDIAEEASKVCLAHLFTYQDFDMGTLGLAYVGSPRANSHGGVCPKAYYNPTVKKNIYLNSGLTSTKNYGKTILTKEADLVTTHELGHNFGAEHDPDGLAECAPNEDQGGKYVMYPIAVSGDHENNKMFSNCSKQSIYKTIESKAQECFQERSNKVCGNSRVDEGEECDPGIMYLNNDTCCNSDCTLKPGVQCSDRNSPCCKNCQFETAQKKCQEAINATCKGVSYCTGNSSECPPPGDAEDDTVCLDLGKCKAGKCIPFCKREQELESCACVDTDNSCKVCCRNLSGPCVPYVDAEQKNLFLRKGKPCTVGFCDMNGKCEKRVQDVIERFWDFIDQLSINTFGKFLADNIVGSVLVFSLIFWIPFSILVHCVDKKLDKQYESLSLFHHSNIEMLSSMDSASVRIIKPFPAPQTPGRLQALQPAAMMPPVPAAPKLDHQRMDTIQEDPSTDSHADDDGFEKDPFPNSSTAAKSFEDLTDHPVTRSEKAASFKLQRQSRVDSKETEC
Chain of 72 kDa type IV collagenase (P08253 whole entry, the tested form may be a part): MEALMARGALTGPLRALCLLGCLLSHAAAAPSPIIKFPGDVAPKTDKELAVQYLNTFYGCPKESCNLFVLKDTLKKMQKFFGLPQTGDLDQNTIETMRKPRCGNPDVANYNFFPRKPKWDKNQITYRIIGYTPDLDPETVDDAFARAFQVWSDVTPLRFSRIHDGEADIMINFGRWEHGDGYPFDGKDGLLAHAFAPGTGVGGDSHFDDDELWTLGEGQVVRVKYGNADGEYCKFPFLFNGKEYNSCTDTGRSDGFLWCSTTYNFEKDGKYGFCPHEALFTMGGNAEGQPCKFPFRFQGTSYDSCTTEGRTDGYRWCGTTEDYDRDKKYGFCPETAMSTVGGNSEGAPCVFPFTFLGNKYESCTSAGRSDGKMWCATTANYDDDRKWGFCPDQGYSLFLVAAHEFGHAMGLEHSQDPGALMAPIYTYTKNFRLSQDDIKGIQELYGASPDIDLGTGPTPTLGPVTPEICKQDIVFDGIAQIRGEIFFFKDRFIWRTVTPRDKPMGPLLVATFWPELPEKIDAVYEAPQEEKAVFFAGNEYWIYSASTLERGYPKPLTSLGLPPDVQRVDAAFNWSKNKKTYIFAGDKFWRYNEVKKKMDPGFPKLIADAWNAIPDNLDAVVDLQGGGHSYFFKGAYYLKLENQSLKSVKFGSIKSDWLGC

Row | SMILES | IC50 [1] | other results
1 | CC#CCOc1ccc(S(=O)(=O)NC(Cc2c[nH]c3ccc(OCc4ccccc4)cc23)C(=O)O)cc1 (stereo in doubt; 11h) | 6980 nM | –
2 | CC#CCOc1ccc(S(=O)(=O)NC(Cc2c[nH]c3cc(F)ccc23)C(=O)O)cc1 (racemic) | 2960 nM | –
3 | CC#CCOc1ccc(S(=O)(=O)NC(Cc2cn(CC)c3ccc(C(=O)O)cc23)C(=O)O)cc1 (racemic) | > 100000 nM | –
4 | CC#CCOc1ccc(S(=O)(=O)NC(Cc2cn(C)c3ccc(C(=O)O)cc23)C(=O)O)cc1 (racemic) | > 100000 nM | –
5 | CC#CCOc1ccc(S(=O)(=O)N[C@H](Cc2cn(Cc3ccc(OC)cc3)c3ccccc23)C(=O)O)cc1 | – | IC50 (Interstitial collagenase): > 50 µM; IC50 [4]: > 100 µM
6 | CC#CCOc1ccc(S(=O)(=O)NC(Cc2cn(Cc3cccc(OC)c3)c3ccc(OC)cc23)C(=O)O)cc1 (racemic) | 2240 nM | –
7 | CC#CCOc1ccc(S(=O)(=O)NC(Cc2cn(Cc3ccccc3F)c3ccc(OC)cc23)C(=O)O)cc1 (racemic) | 2240 nM | –
8 | CC#CCOc1ccc(S(=O)(=O)NC(Cc2c[nH]c3ccc(O)cc23)C(=O)O)cc1 (racemic) | 1610 nM | –
9 | CC#CCOc1ccc(S(=O)(=O)NC(Cc2c[nH]c3cc(C)ccc23)C(=O)O)cc1 (racemic) | 1570 nM | –
10 | CC#CCOc1ccc(S(=O)(=O)NC(Cc2c[nH]c3ccc(OCc4ccccc4)cc23)C(=O)O)cc1 (single isomer, unassigned; enantiomer 2) | 370 nM | IC50 [2]: 19.7 µM; IC50 (Interstitial collagenase): > 50 µM; IC50 [3]: 3270 nM; IC50 (Collagenase 3): 4.44 µM
11 | CC#CCOc1ccc(S(=O)(=O)NC(Cc2c[nH]c3ccc(OC)cc23)C(=O)O)cc1 (single isomer, unassigned; enantiomer 1) | 10100 nM | –
12 | CC#CCOc1ccc(S(=O)(=O)N[C@H](Cc2cn(CC3CCC3)c3ccccc23)C(=O)O)cc1 | 1710 nM | –
13 | CC#CCOc1ccc(S(=O)(=O)N[C@H](Cc2c[nH]c3ccc(C)cc23)C(=O)O)cc1 | – | IC50 [2]: 6.82 µM; IC50 (Interstitial collagenase): > 50 µM; IC50 [3]: 270 nM; IC50 [4]: 7.8 µM; IC50 (Collagenase 3): 1.81 µM
14 | CC#CCOc1ccc(S(=O)(=O)NC(Cc2cn(Cc3ccccc3)c3ccc(C(=O)O)cc23)C(=O)O)cc1 (racemic) | > 100000 nM | –

Second part, led by results:

Row | IC50 [1] | SMILES | other results
15 | 290 nM | CC#CCOc1ccc(S(=O)(=O)NC(Cc2c(C)n(Cc3ccc(Cl)cc3)c3ccc(OC)cc23)C(=O)O)cc1 (racemic) | –
16 | 900 nM | CC#CCOc1ccc(S(=O)(=O)NC(Cc2c(C)n(C)c3ccc(OC)cc23)C(=O)O)cc1 (racemic) | –
17 | 140 nM | CC#CCOc1ccc(S(=O)(=O)NC(Cc2c[nH]c3ccc(OC)cc23)C(=O)O)cc1 (single isomer, unassigned; enantiomer 2) | IC50 [2]: 20.7 µM; IC50 (Interstitial collagenase): > 50 µM; IC50 [3]: 1270 nM; IC50 [4]: 57 µM; IC50 (Collagenase 3): 13.6 µM
18 | 890 nM | CC#CCOc1ccc(S(=O)(=O)NC(Cc2cn(Cc3ccc(OC)cc3)c3ccc(C)cc23)C(=O)O)cc1 (racemic) | –
19 | 300 nM | CC#CCOc1ccc(S(=O)(=O)NC(Cc2c(C)n(CC(C)C)c3ccc(Cl)cc23)C(=O)O)cc1 (racemic) | –
20 | 280 nM | CC#CCOc1ccc(S(=O)(=O)NC(Cc2c(C)n(Cc3cccc(OC)c3)c3ccc(OC)cc23)C(=O)O)cc1 (racemic) | –
21 | 320 nM | CC#CCOc1ccc(S(=O)(=O)NC(Cc2c(C)n(Cc3ccc(F)cc3)c3ccc(OC)cc23)C(=O)O)cc1 (racemic) | –
22 | 300 nM | CC#CCOc1ccc(S(=O)(=O)NC(Cc2c(C)n(Cc3ccccc3F)c3ccc(OC)cc23)C(=O)O)cc1 (racemic) | –
23 | 630 nM | CC#CCOc1ccc(S(=O)(=O)NC(Cc2c[nH]c3ccc(Br)cc23)C(=O)O)cc1 (racemic) | –
24 | 1500 nM | CC#CCOc1ccc(S(=O)(=O)NC(Cc2cn(Cc3ccc4c(c3)OCO4)c3ccc(OC)cc23)C(=O)O)cc1 (racemic) | –
25 | 330 nM | CC#CCOc1ccc(S(=O)(=O)NC(Cc2c(C)n(Cc3ccc(Cl)cc3)c3ccc(Cl)cc23)C(=O)O)cc1 (racemic) | –
26 | 340 nM | CC#CCOc1ccc(S(=O)(=O)NC(Cc2c(C)n(Cc3cccc(F)c3)c3ccc(OC)cc23)C(=O)O)cc1 (racemic) | –
27 | 190 nM | CC#CCOc1ccc(S(=O)(=O)NC(Cc2c(C)n(Cc3ccc(OC)cc3)c3ccc(Cl)cc23)C(=O)O)cc1 (racemic) | –
28 | 470 nM | CC#CCOc1ccc(S(=O)(=O)NC(Cc2c(C)n(Cc3ccc(C#N)cc3)c3ccc(OC)cc23)C(=O)O)cc1 (racemic) | –
29 | 410 nM | CC#CCOc1ccc(S(=O)(=O)NC(Cc2c(C)n(Cc3cccc(C#N)c3)c3ccc(OC)cc23)C(=O)O)cc1 (configuration not stated) | –
30 | 1230 nM | CC#CCOc1ccc(S(=O)(=O)NC(Cc2cn(CC(C)C)c3ccc(OC)cc23)C(=O)O)cc1 (racemic) | –
31 | 250 nM | CC#CCOc1ccc(S(=O)(=O)NC(Cc2c(C)n(Cc3ccccc3)c3ccc(OC)cc23)C(=O)O)cc1 (racemic) | –
32 | 1560 nM | CC#CCOc1ccc(S(=O)(=O)NC(Cc2c[nH]c3ccc(F)cc23)C(=O)O)cc1 (racemic) | –
33 | 1430 nM | CC#CCOc1ccc(S(=O)(=O)N[C@H](Cc2cn(C)c3ccccc23)C(=O)O)cc1 | –
